Laboratory results taken from PMC9096165 (Frontiers in Pharmacology, 2022).

Tested on: CYP-induced non-ulcerative IC rat model
Assay: Mechanical nociceptive abdominal and hind paw test (Von Frey) in chronic CYP-induced non-ulcerative IC/BPS
Type: in vivo, female Sprague–Dawley rats
Experimental: CYP was administered to the animals by the intraperitoneal (i.p.) route (5 ml kg^−1) at the dosage of 75 mg kg^−1 for three times every third day to elicit chronic bladder irritation, as previously described ([Vizzard et al., 1996]).
DF2755A was administered by oral gavage (2 ml kg^−1) at different doses and times before, during, or after CYP treatment, as specified hereunder. DF2755A dosages were chosen based on previous studies that described pharmacokinetics, pharmacodynamics, and pharmacological characterization of the compound ([Lopes et al., 2016]).
Acute treatment: DF2755A was administered 24 h after the last CYP administration at 3, 7, 10, and 30 mg kg^−1.
Chronic preventive treatment: DF2755A was administered 12 h before the first CYP administration (20 mg kg^−1) and then twice daily (7 mg kg^−1) for 7 days during IC development.
Chronic therapeutic treatment: DF2755A was administered twice daily for 7 days at 7 mg kg^−1, starting from 24 h after the last CYP injection.
On the day of the test, each rat was placed individually in a clear plastic testing box with a grid floor and allowed to acclimatize for at least 10 min. Peripheral sensitivity in response to mechanical stimuli was determined using Von Frey monofilaments (1-2-4-8-15-26-60–100 g; Ugo Basile, Comerio, Varese, Italy) applied in the lower abdominal area (close to the urinary bladder) and on both hind paw plantar surfaces (to evaluate referred pain).
Each Von Frey monofilament was applied five times at the level of abdomen and three times at the level of each paw, in an ascending order of strength at interval of 5 s. A stimulus-induced response was considered positive when the paw was sharply withdrawn, paw licking occurred, or the animal flinched upon removal of the filament.
Behavioral testing was performed at different times: • 1) before CYP administration, in order to acquire basal values; • 2) after CYP administration and before DF2755A treatment, in order to verify the pathology induction and acquire pre-treatment values; • 3) at different times after DF2755A treatment, in order to acquire post-treatment values, specifically at 2 and 18 h after the last treatment.

[1] = acute oral treatment 24 h after last CYP, abdomen and hind paw, 2 h after administration
[2] = preventive: 20 mg kg^−1 12 h before first CYP, then 7 mg kg^−1 twice daily for 7 days p.o., 24 h after last CYP
[3] = therapeutic 7 mg kg^−1 twice daily for 7 days, 3 and 7 days after treatment discontinuation
[4] = therapeutic 7 mg kg^−1 twice daily for 7 days, 18 h after the last administration

With C[C@H](C(=O)[O-])c1ccc(Nc2nc(C(F)(F)F)cs2)cc1.[Na+] [DF2755A, sodium (2S)-2-(4-{[4-(trifluoromethyl)-1,3-thiazol-2-yl]amino}phenyl)propanoate] the “dose at which the antinociceptive effects reached a plateau” value [1] was 7 mg/kg, the “dose from which the antinociceptive effect was statistically significant” value [1] was 3 mg/kg and the “decrease of mechanical stimulus threshold versus basal values, hind paws” value [2] was 17%. For the same compound, the “decrease of mechanical stimulus threshold versus basal values, low abdomen” value [2] was “about 30%”, the “duration of anti-hyperalgesic effect after treatment discontinuation” value (therapeutic 7 mg kg^−1 twice daily for 7 days) was “up to 7 days” and the “decrease of the threshold to mechanical stimulus, hind paw plantar surfaces” value [3] was 40%. For the same compound, the “reduction of the threshold to mechanical stimulus, low abdomen” value [3] was 53%, the “decrease of mechanical stimulus threshold, low abdomen” value [4] was 55% and the “decrease of the threshold to mechanical stimulus, hind paw plantar surfaces” value [4] was 33%. For the same compound, the “reduction of the threshold to mechanical stimuli, low abdomen” value (therapeutic: 7 mg kg^−1 twice daily for 7 days p.o. from 24 h after last CYP, 2 h after last treatment (Figure 4A)) was 24% and the “decrease of the threshold to mechanical stimuli, hind paw plantar surfaces” value (therapeutic: 7 mg kg^−1 twice daily for 7 days p.o. from 24 h after last CYP, 2 h after last treatment (Figure 4B)) was 4%.
